Earlier results, collected in patent US4448730A, “Hydroxybenzohydroxamic acids, benzamides and esters and related compounds as ribonucleotide reductase inhibitors” (priority 1982, dated 1984).

Columns and labels:
[1] = tested on: L1210 leukemia; conditions: National Cancer Institute; cited from earlier work
[2] = Biochemical Pharmacology 1971; cited from earlier work
[3] = tested on: RNA and protein synthesis in Ehrlich ascites tumor cells; conditions: Gale and Hynes 1968; cited from earlier work
[4] = tested on: DNA synthesis in Ehrlich ascites tumor cells; conditions: Gale and Hynes 1968; in vitro; cited from earlier work
[5] = tested on: DNA, RNA and protein synthesis in cells; conditions: cited from earlier work

Structure (SMILES): O=C(NO)c1ccc(O)cc1 [4-hydroxybenzoylhydroxamic acid]
- antitumor activity in vivo against L1210 leukemia (in words) [1]: significant antitumor activity in vivo
- antimitogenic activity (in words) [2]: most active compounds tested

Structure (SMILES): O=C(NO)c1ccccc1 [Benzohydroxamic acid]
- inhibition of RNA synthesis (in words) [3]: found to inhibit RNA synthesis

Structure (SMILES): O=C(NO)c1ccccc1O [salicylhydroxamic acid]
- inhibition of / selectivity against DNA synthesis (in words) [4]: selective inhibition of DNA synthesis
- inhibition of DNA synthesis (in words) ([5]; Gale 1966): selective inhibition of DNA synthesis
- depression of RNA and protein synthesis (in words) ([5]; cells preincubated for up to two hours): only a slight depression of RNA and protein synthesis
